Each structure is given as a SMILES string.

Our source for the herbicidal activity values is patent US20240101521A1, “DIAMINOTRIAZINE COMPOUNDS” (BASF SE, priority 2021, published 2024).

Common to all, as to experiment: greenhouse pre-emergence herbicidal test
What all share (format): in vivo
Holding throughout (conditions): scale 0 to 100

Experiment [1] concerns Amaranthus retroflexus. From the text: (§1) The culture containers used were plastic flowerpots containing loamy sand with approximately 3.0% of humus as the substrate. The seeds of the test plants were sown separately for each species.
(§2) For the pre-emergence treatment, the active ingredients, which had been suspended or emulsified in water, were applied directly after sowing by means of finely distributing nozzles. The containers were irrigated gently to promote germination and growth and subsequently covered with transparent plastic hoods until the plants had rooted. This cover caused uniform germination of the test plants, unless this had been impaired by the active ingredients. For the post-emergence treatment, the test plants were first grown to a height of 3 to 15 cm, depending on the plant habit, and only then treated with the active ingredients which had been suspended or emulsified in water. For this purpose, the test plants were either sown directly and grown in the same containers, or they were first grown separately as seedlings and transplanted into the test containers a few days prior to treatment.
(§3) Depending on the species, the plants were kept at 10-25° C. or 20-35° C., respectively.
(§4) The test period extended over 2 to 4 weeks. During this time, the plants were tended, and their response to the individual treatments was evaluated.
(§5) Evaluation was carried out using a scale from 0 to 100. 100 means no emergence of the plants, or complete destruction of at least the aerial moieties, and 0 means no damage, or normal course of growth. A moderate herbicidal activity is given at values of at least 60, a good herbicidal activity is given at values of at least 70, and a very good herbicidal activity is given at values of at least 85.
(§6) The plants used in the greenhouse experiments were of the following species: […]

Experiment [2] relates to Alopecurus myosuroides.
Text: as §1, §2, §3, §4, §5, §6

Experiment [3] concerns Echinochloa crus-galli.
Text: as §1, §2, §3, §4, §5, §6

Experiment [4] relates to Abutilon theophrasti.
Text: as §1, §2, §3, §4, §5, §6

For experiment [5], the system named is Setaria faberi.
Text: as §1, §2, §3, §4, §5, §6

On to `COc1c(C)c(F)c(F)c(F)c1Nc1nc(N)nc(C(C)(C)F)n1` [Example 169], for which the herbicidal activity is 100% in experiment [1] (pre-emergence, 62,5 g/ha); 100% in experiment [2] (pre-emergence, 62,5 g/ha); 100% in experiment [3] (pre-emergence, 62,5 g/ha).

On to `CCC(C)(F)c1nc(N)nc(Nc2c(F)c(F)cc(Cl)c2OC)n1` (stereo not drawn) [Example 116], for which the herbicidal activity came to 100% in experiment [1] (pre-emergence, 62,5 g/ha); 100% in experiment [4] (pre-emergence, 62,5 g/ha); 100% in experiment [2] (pre-emergence, 62,5 g/ha).

`COc1c(Cl)cc(F)c(F)c1Nc1nc(N)nc(C2(F)CCCC2)n1` [Example 11]: the herbicidal activity in experiment [5] (pre-emergence, 250 g/ha) worked out at 100%; in experiment [2] (pre-emergence, 250 g/ha), 100%; in experiment [3] (pre-emergence, 250 g/ha), 100%.

For `COc1c(Br)cc(F)c(F)c1Nc1nc(N)nc(C(C)(F)CBr)n1` (stereo not drawn) [Example 123], the herbicidal activity in experiment [1] (pre-emergence, 62,5 g/ha) is reported as 100%; in experiment [5] (pre-emergence, 62,5 g/ha), 100%; in experiment [2] (pre-emergence, 62,5 g/ha), 100%.

`COc1c(Cl)cc(F)c(F)c1Nc1nc(N)nc(C2(F)CC2)n1` [Example 35]: the herbicidal activity was determined as 100% in experiment [1] (pre-emergence, 62,5 g/ha); 100% in experiment [4] (pre-emergence, 62,5 g/ha); 100% in experiment [3] (pre-emergence, 62,5 g/ha).

As for `CCC#CCOc1c(Br)cc(F)c(F)c1Nc1nc(N)nc(C(C)(C)F)n1` [Example 20], the herbicidal activity was 100% in experiment [1] (pre-emergence, 62,5 g/ha); 100% in experiment [4] (pre-emergence, 62,5 g/ha); 100% in experiment [3] (pre-emergence, 62,5 g/ha).

As for `COc1c(Br)cc(F)c(F)c1Nc1nc(N)nc(C2(F)CC2)n1` [Example 55], the herbicidal activity amounted to 100% in experiment [1] (pre-emergence, 62,5 g/ha); 100% in experiment [4] (pre-emergence, 62,5 g/ha); 100% in experiment [3] (pre-emergence, 62,5 g/ha).

`COc1c(Br)cc(F)c(F)c1Nc1nc(N)nc(C(C)(F)CCl)n1` (stereo not drawn) [Example 33]: the herbicidal activity in experiment [1] (pre-emergence, 62,5 g/ha) came to 100%; in experiment [4] (pre-emergence, 62,5 g/ha) it was 100%; in experiment [3] (pre-emergence, 62,5 g/ha), 98%.

For `CC#CC(C)Oc1c(Cl)cc(F)c(F)c1Nc1nc(N)nc(C2(F)CCCC2)n1` (stereo not drawn) [Example 100], the herbicidal activity in experiment [5] (pre-emergence, 62 g/ha) worked out at 100%; in experiment [2] (pre-emergence, 62 g/ha) it was 98%; in experiment [3] (pre-emergence, 62 g/ha) it was 100%.

For the molecule `CC(C)(F)c1nc(N)nc(Nc2c(F)c(F)cc(Br)c2OC(F)F)n1` [Example 31], the herbicidal activity turned out to be 100% in experiment [1] (pre-emergence, 250 g/ha); 100% in experiment [4] (pre-emergence, 250 g/ha); 100% in experiment [3] (pre-emergence, 250 g/ha).

Turning to `CC#CCOc1c(Br)cc(F)c(F)c1Nc1nc(N)nc(C(C)(C)F)n1` [Example 15], the herbicidal activity amounted to 100% in experiment [5] (pre-emergence, 125 g/ha); 100% in experiment [2] (pre-emergence, 125 g/ha); 100% in experiment [3] (pre-emergence, 125 g/ha).

For `CC#CCOc1c(Cl)cc(F)c(F)c1Nc1nc(N)nc(C(C)(C)F)n1` [Example 18], the herbicidal activity in experiment [1] (pre-emergence, 62,5 g/ha) came out at 100%; in experiment [4] (pre-emergence, 62,5 g/ha), 100%; in experiment [3] (pre-emergence, 62,5 g/ha) it was 100%.

Take `CC#CCOc1c(Cl)cc(Cl)c(F)c1Nc1nc(N)nc(C(C)(C)F)n1` [Example 61]: the herbicidal activity was 100% in experiment [1] (pre-emergence, 31 g/ha); 100% in experiment [4] (pre-emergence, 31 g/ha); 100% in experiment [3] (pre-emergence, 31 g/ha).

As for `CC(C)(F)c1nc(N)nc(Nc2c(F)ccc(Br)c2OC2CC2)n1` [Example 13], the herbicidal activity is on record as 100% in experiment [5] (pre-emergence, 62,5 g/ha); 100% in experiment [2] (pre-emergence, 62,5 g/ha); 100% in experiment [3] (pre-emergence, 62,5 g/ha).

On to `CC=C(Cl)COc1c(Cl)cc(F)c(F)c1Nc1nc(N)nc(C(C)(C)F)n1` [Example 53], for which the herbicidal activity in experiment [5] (pre-emergence, 62,5 g/ha) came out at 100%; in experiment [2] (pre-emergence, 62,5 g/ha), 90%; in experiment [3] (pre-emergence, 62,5 g/ha) it was 98%.

In the case of `COc1c(Cl)cc(F)c(F)c1Nc1nc(N)nc(C(C)(C)OC)n1` [Example 36], the herbicidal activity in experiment [1] (pre-emergence, 62,5 g/ha) turned out to be 100%; in experiment [4] (pre-emergence, 62,5 g/ha) it was 100%; in experiment [3] (pre-emergence, 62,5 g/ha) it was 100%.

For the molecule `CC(C)(F)c1nc(N)nc(Nc2c(F)c(F)cc(Cl)c2OCC#CC2CC2)n1` [Example 30], the herbicidal activity in experiment [5] (pre-emergence, 31 g/ha) turned out to be 100%; in experiment [4] (pre-emergence, 31 g/ha), 100%; in experiment [2] (pre-emergence, 31 g/ha) it was 100%.

Regarding `C#CC(C)Oc1c(Br)cc(F)c(F)c1Nc1nc(N)nc(C2(F)CCCC2)n1` (stereo not drawn) [Example 97], the herbicidal activity in experiment [1] (pre-emergence, 62 g/ha) turned out to be 85%; in experiment [5] (pre-emergence, 62 g/ha), 85%; in experiment [2] (pre-emergence, 62 g/ha), 70%.

In the case of `COc1c(Cl)cc(Cl)c(F)c1Nc1nc(N)nc(C(C)F)n1` (stereo not drawn) [Example 63], the herbicidal activity in experiment [1] (pre-emergence, 31 g/ha) is reported as 80%; in experiment [5] (pre-emergence, 31 g/ha) it was 100%; in experiment [2] (pre-emergence, 31 g/ha) it was 80%.

`C=CC(C)(F)c1nc(N)nc(Nc2c(F)c(F)c(F)c(Cl)c2OC)n1` (stereo not drawn) [Example 173]: the herbicidal activity in experiment [1] (pre-emergence, 62,5 g/ha) amounted to 100%; in experiment [5] (pre-emergence, 62,5 g/ha), 95%; in experiment [2] (pre-emergence, 62,5 g/ha), 100%.

Regarding `COc1c(Br)c(F)c(F)c(F)c1Nc1nc(N)nc(C(C)(C)F)n1` [Example 164], the herbicidal activity was determined as 100% in experiment [1] (pre-emergence, 62,5 g/ha); 100% in experiment [5] (pre-emergence, 62,5 g/ha); 100% in experiment [2] (pre-emergence, 62,5 g/ha).

`COc1c(Cl)cc(F)c(F)c1Nc1nc(N)nc(C(C)(C)Cl)n1` [Example 37]: the herbicidal activity in experiment [1] (pre-emergence, 62,5 g/ha) is recorded as 100%; in experiment [4] (pre-emergence, 62,5 g/ha), 98%; in experiment [3] (pre-emergence, 62,5 g/ha) it was 100%.

In the case of `COc1c(F)cc(C)c(F)c1Nc1nc(N)nc(C(C)(C)F)n1` [Example 32, N4-(2,5-difluoro-6-methoxy-3-methyl-phenyl)-6-(1-fluoro-1-methyl-ethyl)-1,3,5-triazine-2,4-diamine], the herbicidal activity in experiment [1] (pre-emergence, 62,5 g/ha) was 100%; in experiment [4] (pre-emergence, 62,5 g/ha), 100%; in experiment [3] (pre-emergence, 62,5 g/ha), 100%.

For `Nc1nc(Nc2c(F)ccc(Br)c2OC2CC2)nc(C2(F)CCCC2)n1` [Example 14], the herbicidal activity in experiment [5] (pre-emergence, 125 g/ha) is given as 100%; in experiment [2] (pre-emergence, 125 g/ha), 98%; in experiment [3] (pre-emergence, 125 g/ha) it was 98%.

Turning to `COc1c(Cl)cc(F)c(F)c1Nc1nc(N)nc(C(C)(F)F)n1` [Example 49, N4-(5-chloro-2,3-difluoro-6-methoxy-phenyl)-6-(1,1-difluoroethyl)-1,3,5-triazine-2,4-diamine], the herbicidal activity in experiment [1] (pre-emergence, 62,5 g/ha) was 100%; in experiment [4] (pre-emergence, 62,5 g/ha), 100%; in experiment [3] (pre-emergence, 62,5 g/ha), 100%.

As for `CC#CC(C)Oc1c(Cl)cc(F)c(F)c1Nc1nc(N)nc(C(C)(C)F)n1` (stereo not drawn) [Example 98], the herbicidal activity in experiment [1] (pre-emergence, 62 g/ha) amounted to 100%; in experiment [5] (pre-emergence, 62 g/ha), 100%; in experiment [2] (pre-emergence, 62 g/ha) it was 100%.

For `CCOc1c(Br)cc(F)c(F)c1Nc1nc(N)nc(C(C)(C)F)n1` [Example 19], the herbicidal activity in experiment [1] (pre-emergence, 62,5 g/ha) turned out to be 100%; in experiment [4] (pre-emergence, 62,5 g/ha) it was 100%; in experiment [3] (pre-emergence, 62,5 g/ha), 100%.

On to `COc1c(Cl)cc(F)c(F)c1Nc1nc(N)nc(C(C)(F)CCl)n1` (stereo not drawn) [Example 34], for which the herbicidal activity was determined as 100% in experiment [1] (pre-emergence, 62,5 g/ha); 100% in experiment [4] (pre-emergence, 62,5 g/ha); 100% in experiment [3] (pre-emergence, 62,5 g/ha).

As to `COc1c(Br)cc(F)c(F)c1Nc1nc(N)nc(C(C)F)n1` (stereo not drawn) [Example 120], the herbicidal activity was determined as 100% in experiment [1] (pre-emergence, 62,5 g/ha); 100% in experiment [4] (pre-emergence, 62,5 g/ha); 100% in experiment [3] (pre-emergence, 62,5 g/ha).

Turning to `C#CCOc1c(Br)cc(F)c(F)c1Nc1nc(N)nc(C(C)(C)F)n1` [Example 17], the herbicidal activity amounted to 100% in experiment [1] (pre-emergence, 250 g/ha); 100% in experiment [4] (pre-emergence, 250 g/ha); 100% in experiment [3] (pre-emergence, 250 g/ha).

For `COc1c(Cl)cc(F)c(F)c1Nc1nc(N)nc(C(F)CC(C)C)n1` (racemic) [Example 12], the herbicidal activity in experiment [5] (pre-emergence, 250 g/ha) came out at 100%; in experiment [2] (pre-emergence, 250 g/ha), 100%; in experiment [3] (pre-emergence, 250 g/ha), 100%.
